Data reported in patent US20160287514A1 (PIERRE FABRE MEDICAMENT, priority 2012, published 2016).
Where two headings read alike, the source gives them in different places.

What was measured:
[1] = type: physicochemical
[2] = in vivo; cited from earlier work
pharyngitis = settings: ibuprofen 400 mg; meta-analysis; cited from earlier work

For CC(C)Cc1ccc(C(C)C(=O)O)cc1.O.O.[Na] (centres unmarked) [Sod, ibuprofen sodium dihydrate], the “content of impurities compared among the salts” value ([1]; regardless of the long term temperature and humidity conditions) was “lowest content of impurities”.

In the case of ibuprofen lysinate, the “total content of impurities” value ([1]; T0, closed pill box) was <0.1 percentage, the “total content of impurities” value ([1]; T1 month, 25° C., RH 60, closed pill box) was 0.15 percentage and the “total content of impurities” value ([1]; T1 month, 40° C., RH 75, closed pill box) was 0.19 percentage. For the same molecule, the “total content of impurities” value ([1]; T1 month, 40° C., RH 75, open pill box) was 0.53 percentage, the “total content of impurities” value ([1]; T2 months, 25° C., RH 60, closed pill box) was 0.15 percentage and the “total content of impurities” value ([1]; T2 months, 40° C., RH 75, closed pill box) was 0.21 percentage. For the same molecule, the “total content of impurities” value ([1]; T2 months, 40° C., RH 75, open pill box) was 2.21 percentage, the “total content of impurities” value ([1]; T3 months, 25° C., RH 60, closed pill box) was 0.17 percentage and the “total content of impurities” value ([1]; T3 months, 40° C., RH 75, closed pill box) was 0.27 percentage. The “total content of impurities” value ([1]; T3 months, 40° C., RH 75, open pill box) was 3.10 percentage and the “total content of impurities” value ([1]; T15 d, 40° C., RH 75, closed pill box) was 0.28 percentage.

In the case of CC(C(=O)O)c1ccc(-c2ccccc2)c(F)c1 (centres unmarked) [flurbiprofen], the half-life [2] is given as 4 h.

In the case of CC(C)Cc1ccc(C(C)C(=O)O)cc1 (centres unmarked) [ibuprofen, 2-(4-(2-methylpropyl)phenyl)propanoic acid], the “pain relief in pharyngitis compared with acetaminophene (1000 mg, paracetamol)” value (pharyngitis) is given as “significant superiority”.
